Measured values as given in paper PMC12621019, “Restructuring Antiviral Quinazolinone Frameworks to Derive and Optimize Inhibitors of Chikungunya Virus” (ACS Medicinal Chemistry Letters, 2025).
Values after ≈ are worked out from the molar mass of the structure shown.

How the values were obtained:
[1] = system: CHIKV (strain 181/25mKate); assay: microbe, parasite or virus in culture; format: cell-based; settings: Chikungunya virus, NHDF; for log reduction at 10 µM: 72 h, read-out: titer redn, log
[2] = Kinetic solubility determination; settings: for solubility kinetic at 24 h: pH 7.4, aqueous buffer, kinetic from dmso stock
[3] = physchem; settings: pH 7.4
[4] = Cytotoxicity assay (CellTiter Glo) in NHDF cells; settings: human, CC50, NHDF cells, maximum 40 μM
[5] = Mouse plasma stability; settings: male, CD-1, mouse
[6] = Liver microsomal stability; settings: CD-1, mouse, microsomes
[7] = Plasma protein binding (equilibrium dialysis); settings: male, CD-1, mouse
[8] = Cytotoxicity in Vero E6 cells (live cell count, high-content imaging); settings: African green monkey
[9] = system: NHDF cells; assay: Cytotoxicity assay (CellTiter Glo) in NHDF cells; settings: NHDF cells, 72 h; maximum 40 μM

| Compound | log reduction at 10 µM [1] | solubility kinetic at 24 h [2] [µM] | logD [3] | CC50 at 72 h [4] [µM] | half-life [5] [min] | half-life [6] [min] | fraction unbound at 4 h, 2 μM [7] | EC50 ([1]; read-out: EC50 (titer reduction assay, dose response)) [nM] | boost in aqueous solubility compared to rac-1x ([2]; PBS buffer, pH 7.4) [fold] | CC50 at 20 h [8] [µM] | CC50 [9] [µM] |
| --- | --- | --- | --- | --- | --- | --- | --- | --- | --- | --- | --- |
| CC(C)N1CCN(c2cc3nc(C4CCCCN4)n(-c4ccc(Cl)cc4)c(=O)c3cc2Cl)CC1 (racemic) [rac-1x] | ~4 | 34.6 (≈ 17.3 µg/mL) | 2.3 | 20.9 | > 289 | > 145 | 0.033 | – | – | – | – |
| COc1c(F)cc(-n2c([C@H]3CCCCN3)nc3cc(N4CCN(C(C)C)CC4)c(Cl)cc3c2=O)cc1F [(R)-1h] | 4.1 | 183 (≈ 97.4 µg/mL) | – | ~19 | > 240 | > 145 | 0.232 | 860 | 5 | > 20 | 18.6 |
